The target of assay [1] is T1, human EphB2-His ectodomain - human EphrinB2-Fc ectodomain (EphB2-EphrinB2 tetramer) (Homo sapiens, UniProt P29323+P52799). In words: biochemical.
Assay [2] has as its target T1, human EphB2-His ectodomain - human EphrinB2-Fc ectodomain (EphB2-EphrinB2 tetramer). Nature of the assay: biochemical. This is another data set of the same source.
Assay [3] has the same target. Nature of the assay: biochemical. As to conditions: Octet IC50 data EB2-EphB2 (Absolute).
For assay [4] the target is unchanged. In words: biochemical. As to conditions: Octet IC50 data EB2-EphB2 (Relative). (BLI is a label-free optical method that tracks binding on a fibre tip over time.)
For assay [5] the target is unchanged. Nature of the assay: biochemical. This is another data set of the same source.
Assay [6] shares this target. Nature of the assay: biochemical. This is another data set of the same source.
The target is the same in assay [7]. In words: biochemical. As to conditions: EphrinB2-EphB2 IC50 (Absolute, µM).
For assay [8] the target is unchanged. Nature of the assay: biochemical. As to conditions: EphrinB2-EphB2 IC50 (Relative, µM).
The target in assay [9] is rat EphB1-Fc ectodomain - mouse EphrinB2-His ectodomain (EphB1-EphrinB2) (Rattus norvegicus; Mus musculus, UniProt P09759+P52800). Nature of the assay: biochemical.
For assay [10], the target named is T1, human EphB2-His ectodomain - human EphrinB2-Fc ectodomain (EphB2-EphrinB2 tetramer). Nature of the assay: biochemical. The source holds these as a separate data set.
Assay [11] has the same target. Nature of the assay: biochemical. The source holds these as a separate data set.
The target is the same in assay [12]. Nature of the assay: biochemical. This is another data set of the same source.
Assay [13] deals with EphrinB2 of mouse pancreatic stellate cells stimulated with mouse EphB2-Fc-His (Mus musculus, UniProt P52800+P54763). In words: % pEphrinB2 by IP and immunoblot. In kind it is cell-based. For orientation: A western blot detects proteins with antibodies after separation by electrophoresis.
The target in assay [14] is T1, human EphB2-His ectodomain - human EphrinB2-Fc ectodomain (EphB2-EphrinB2 tetramer). Nature of the assay: biochemical. This is another data set of the same source.
The target is the same in assay [15]. In words: biochemical. This is another data set of the same source.
For assay [16] the target is unchanged. Nature of the assay: biochemical. The source holds these as a separate data set.
Assay [17] has the same target. Nature of the assay: biochemical. This is another data set of the same source.

Among the data in publication doi:10.64898/2025.12.08.692997v2 (biorxiv, 2025) are IC50 values, retold here.

Structures can show the parent of a compound that is named as a salt. Where two headings read alike, the source gives them in different places.

T1 sequence (P52799 28-229): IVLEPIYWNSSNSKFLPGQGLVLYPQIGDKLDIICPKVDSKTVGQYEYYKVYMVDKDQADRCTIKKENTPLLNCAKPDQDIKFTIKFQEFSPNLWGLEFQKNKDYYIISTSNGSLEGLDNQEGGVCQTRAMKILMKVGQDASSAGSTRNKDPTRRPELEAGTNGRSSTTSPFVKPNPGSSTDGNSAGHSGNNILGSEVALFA
T1 sequence (P29323 19-543): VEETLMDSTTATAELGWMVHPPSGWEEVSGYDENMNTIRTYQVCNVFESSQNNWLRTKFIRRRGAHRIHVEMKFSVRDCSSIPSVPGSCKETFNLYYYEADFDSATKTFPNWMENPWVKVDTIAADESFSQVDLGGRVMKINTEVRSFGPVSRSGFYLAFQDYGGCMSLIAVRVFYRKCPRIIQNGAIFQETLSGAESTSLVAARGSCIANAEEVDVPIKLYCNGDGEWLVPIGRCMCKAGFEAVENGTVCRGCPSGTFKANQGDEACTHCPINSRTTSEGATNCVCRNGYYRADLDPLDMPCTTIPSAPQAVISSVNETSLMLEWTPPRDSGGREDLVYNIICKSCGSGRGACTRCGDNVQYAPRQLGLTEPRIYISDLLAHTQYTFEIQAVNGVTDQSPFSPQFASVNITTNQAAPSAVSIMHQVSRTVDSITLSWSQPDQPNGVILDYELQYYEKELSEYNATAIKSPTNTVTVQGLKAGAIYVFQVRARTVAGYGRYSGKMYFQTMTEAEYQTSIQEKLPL
rat EphB1-Fc ectodomain - mouse EphrinB2-His ectodomain (EphB1-EphrinB2), sequence (P52800 29-232): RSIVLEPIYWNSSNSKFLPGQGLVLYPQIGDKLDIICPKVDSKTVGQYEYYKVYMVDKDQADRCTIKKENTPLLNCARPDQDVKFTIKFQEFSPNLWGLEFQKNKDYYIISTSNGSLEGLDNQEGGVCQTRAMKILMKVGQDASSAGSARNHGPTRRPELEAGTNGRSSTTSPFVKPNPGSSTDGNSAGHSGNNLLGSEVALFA
rat EphB1-Fc ectodomain - mouse EphrinB2-His ectodomain (EphB1-EphrinB2), sequence (P09759 18-538): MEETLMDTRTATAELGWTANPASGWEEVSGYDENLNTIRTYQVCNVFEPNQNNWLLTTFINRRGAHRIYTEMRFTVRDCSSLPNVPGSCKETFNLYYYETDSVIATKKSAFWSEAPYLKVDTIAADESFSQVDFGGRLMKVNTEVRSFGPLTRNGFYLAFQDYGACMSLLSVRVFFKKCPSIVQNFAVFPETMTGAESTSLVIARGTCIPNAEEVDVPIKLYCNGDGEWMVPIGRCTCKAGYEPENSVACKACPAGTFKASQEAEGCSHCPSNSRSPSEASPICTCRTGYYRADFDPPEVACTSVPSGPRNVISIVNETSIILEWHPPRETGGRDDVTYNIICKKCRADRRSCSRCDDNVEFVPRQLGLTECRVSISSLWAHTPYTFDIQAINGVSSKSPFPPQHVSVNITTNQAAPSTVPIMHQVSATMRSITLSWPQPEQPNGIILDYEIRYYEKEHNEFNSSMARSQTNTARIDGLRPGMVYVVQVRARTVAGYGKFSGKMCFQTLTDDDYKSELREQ
EphrinB2 of mouse pancreatic stellate cells stimulated with mouse EphB2-Fc-His, sequence (P52800 29-336): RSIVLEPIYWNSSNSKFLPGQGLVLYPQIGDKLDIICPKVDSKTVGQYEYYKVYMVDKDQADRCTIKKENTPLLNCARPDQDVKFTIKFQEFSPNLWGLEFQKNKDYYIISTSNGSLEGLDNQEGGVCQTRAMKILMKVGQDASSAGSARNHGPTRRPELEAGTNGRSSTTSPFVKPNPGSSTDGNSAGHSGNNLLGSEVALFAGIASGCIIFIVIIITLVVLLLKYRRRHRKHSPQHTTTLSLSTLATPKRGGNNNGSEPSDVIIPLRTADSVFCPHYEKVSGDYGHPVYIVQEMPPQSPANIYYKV
EphrinB2 of mouse pancreatic stellate cells stimulated with mouse EphB2-Fc-His, sequence (P54763 19-540): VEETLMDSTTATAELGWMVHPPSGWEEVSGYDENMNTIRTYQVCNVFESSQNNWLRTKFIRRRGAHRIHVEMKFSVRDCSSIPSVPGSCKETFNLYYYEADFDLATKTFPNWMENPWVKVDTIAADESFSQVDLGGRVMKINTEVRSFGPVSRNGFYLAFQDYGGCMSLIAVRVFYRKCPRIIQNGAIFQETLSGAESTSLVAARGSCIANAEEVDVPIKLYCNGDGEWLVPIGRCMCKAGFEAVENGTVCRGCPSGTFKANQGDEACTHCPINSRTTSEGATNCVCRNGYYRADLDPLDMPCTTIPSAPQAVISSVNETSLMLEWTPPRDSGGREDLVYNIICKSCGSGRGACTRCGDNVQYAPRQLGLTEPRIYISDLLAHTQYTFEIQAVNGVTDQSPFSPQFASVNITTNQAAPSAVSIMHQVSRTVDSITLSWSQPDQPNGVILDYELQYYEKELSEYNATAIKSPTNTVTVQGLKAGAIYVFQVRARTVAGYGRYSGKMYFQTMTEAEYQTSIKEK

For orientation: IC50 means the concentration needed to halve the response being measured. Lower therefore signals greater potency. As for `Cc1ncc(CO)c(CO)c1O` [compound 8, Pyridoxine hydrochloride], the half-maximal inhibitory concentration (IC50) in assay [1] is more than 100000 nM.

For `Nc1nc2ncc(CNc3ccc(C(=O)N[C@@H](CCC(=O)O)C(=O)O)cc3)nc2c(=O)[nH]1` [compound 12, Folic acid], the IC50 in assay [1] was more than 100000 nM.

Regarding `Cc1ccnc(NC(c2cccc([N+](=O)[O-])c2)c2ccc3cccnc3c2O)c1` (centres unmarked) [SW039339], in [2], the half-inhibitory concentration (IC50) was more than 3200 nM.

For `CC(=O)Oc1ccccc1C(=O)O` [compound 1, Aspirin], the IC50 in [1] was more than 100000 nM.

`CNC[C@H](O)c1cccc(O)c1` [compound 5, Phenylephrine hydrochloride] came in with an IC50 in [1] of more than 100000 nM.

As to `CC1(C)CC(N2COc3c(cc(Cl)c4cccnc34)C2)CC(C)(C)N1` [compound 5, 6-chloro-3-(2,2,6,6-tetramethylpiperidin-4-yl)-3,4-dihydro-2H-[1,3]oxazino[5,6-h]quinoline], the IC50 turned out to be 1740 nM in [3] and 1150 nM in assay [4].

In the case of `Clc1cc2c(c3ncccc13)OCN(CCC1=CCCCC1)C2` [compound 12, 6-chloro-3-(2-(cyclohex-1-en-1-yl)ethyl)-3,4-dihydro-2H-[1,3]oxazino[5,6-h]quinoline], the half-inhibitory concentration (IC50) in assay [3] amounted to 660 nM; in assay [4], 590 nM.

Take `Clc1cc2c(c3ncccc13)OCN(C1CCCC1)C2` [1b, 6-chloro-3-cyclopentyl-3,4-dihydro-2H-[1,3]oxazino[5,6-h]quinoline]: the IC50 in assay [3] was 1380 nM; in [4] it was 1200 nM.

With `CC(C)Cc1ccc(C(C)C(=O)O)cc1` (centres unmarked) [compound 3, Ibuprofen], the IC50 in assay [1] is more than 100000 nM.

`Oc1ccc(Cl)c2cccnc12` [compound 3, Cloxiquine]: the values for the half-inhibitory concentration (IC50) in [5] and in assay [6] were more than 3200 nM and approximately 3200 nM, respectively.

For `Clc1cc2c(c3ncccc13)OCN(Cc1cccnc1)C2` [compound 2, 6-chloro-3-(pyridin-3-ylmethyl)-3,4-dihydro-2H-[1,3]oxazino[5,6-h]quinoline], the IC50 in [3] came out at 850 nM; in [4] it was 740 nM.

`CCc1ccc(CCOc2ccc(CC3SC(=O)NC3=O)cc2)nc1` (centres unmarked) [compound 7, Pioglitazone hydrochloride] returned a half-inhibitory concentration (IC50) in assay [1] of more than 100000 nM.

`Oc1ccc(CN2CCOCC2)c2cccnc12` [A19, 5-(morpholinomethyl)quinolin-8-ol]: the IC50 in assay [7] was more than 1.6 µM; in [8], more than 1.6 µM; in [9], more than 100000 nM.

Regarding `O=C(O)CN(CCOCCOCCN(CC(=O)O)CC(=O)O)CC(=O)O` [compound 2, EGTA sodium salt], the IC50 in assay [5] and in [10] was more than 3200 nM throughout.

For the molecule `CC(C)(C)N1COc2c(cc(Cl)c3cccnc23)C1` [compound 3, 3-(tert-butyl)-6-chloro-3,4-dihydro-2H-[1,3]oxazino[5,6-h]quinoline], the IC50 in [3] turned out to be 1950 nM; in assay [4], 1780 nM.

As for `O=C(O)Cc1ccccc1Nc1c(Cl)cccc1Cl` [compound 9, Diclofenac sodium salt], the 50% inhibitory concentration (IC50) in assay [1] is more than 100000 nM.

Consider `O=C(Oc1cccc2cccnc12)c1ccc(F)cc1` [compound 2, 8-quinolinyl 4-fluorobenzoate], for which the IC50 in assay [11] was more than 100000 nM; in assay [12], 100000 nM.

Turning to `O=S1(=O)CCN(Cc2ccc(O)c3ncccc23)CC1` [QTM . 2 HCl, 4-((8-hydroxyquinolin-1-ium-5-yl)methyl)thiomorpholin-4-ium 1,1-dioxide chloride], the results for the IC50 in [7], in assay [8] and in assay [9] were more than 1.6 µM, 0.81 µM and more than 100000 nM, respectively.

Regarding `Clc1cc2c(c3ncccc13)OCN(C1CCCC1)C2` [1c, 6-chloro-3-cyclopentyl-3,4-dihydro-2H-[1,3]oxazino[5,6-h]quinoline], the concentration for half-maximal inhibition (IC50) came to 850 nM in assay [3] and 760 nM in assay [4].

Take `CC(c1ccccc1)N1COc2c(cc(Cl)c3cccnc23)C1` (centres unmarked) [compound 10, 6-chloro-3-(1-phenylethyl)-3,4-dihydro-2H-[1,3]oxazino[5,6-h]quinoline]: the figures for the IC50 in assay [3] and in [4] were 890 nM and 740 nM, respectively.

In the case of `Clc1cc2c(c3ncccc13)OCN(CC1CCCO1)C2` (centres unmarked) [4a, 6-chloro-3-((tetrahydrofuran-2-yl)methyl)-3,4-dihydro-2H-[1,3]oxazino[5,6-h]quinoline], the figures for the IC50 in assay [3] and in assay [4] were 810 nM and 720 nM, respectively.

For `CCCCN1COc2c(cc(Cl)c3cccnc23)C1` [compound 8, 3-butyl-6-chloro-3,4-dihydro-2H-[1,3]oxazino[5,6-h]quinoline], the values for the IC50 in assay [3] and in assay [4] were 1150 nM and 1050 nM, respectively.

In the case of `CCN(CC)CC(=O)Nc1c(C)cccc1C` [compound 4, Lidocaine hydrochloride monohydrate], the half-inhibitory concentration (IC50) in assay [1] is more than 100000 nM.

On to `Clc1cc2c(c3ncccc13)OCN(CCc1ccccc1)C2` [compound 11, 6-chloro-3-phenethyl-3,4-dihydro-2H-[1,3]oxazino[5,6-h]quinoline], for which the IC50 in [3] came to 1150 nM; in [4], 1070 nM.

With `CC(=O)Nc1ccc(O)cc1` [compound 2, Acetaminophen], the IC50 in assay [1] is more than 100000 nM.

Consider `O=C(O)CN(CCN(CC(=O)O)CC(=O)O)CC(=O)O` [EDTA], for which the IC50 in [13] stood at 1100 nM.

With `CCN(CC)C(=O)Oc1c(Br)cc(Cl)c2cccnc12` [compound 7, 7-bromo-5-chloro-8-quinolinyl diethylcarbamate], the IC50 in assay [14] is more than 100000 nM.

In assay [1], `N[C@@H](Cc1ccc(O)cc1)C(=O)O` [compound 10, L-Tyrosine] came in with a half-inhibitory concentration (IC50) of more than 100000 nM.

On to `O=C(O)[C@@H](S)[C@@H](S)C(=O)O` [compound 8, Succimer], for which the IC50 in [15] and in assay [16] was approximately 50000 nM each time.

Take `O=C(O)c1ccc(-n2nc(-c3ccccc3O)nc2-c2ccccc2O)cc1` [compound 3, Deferasirox]: the IC50 in assay [17] was more than 100000 nM.

Regarding `COCCN(CCCCc1ccc2c(n1)NCCC2)CC[C@H](Nc1ncnc2ccccc12)C(=O)O` [compound 9, Bexotegrast], the IC50 in [17] is more than 100000 nM.

In turn, `CCN(CC)C(=O)Oc1c(I)cc(Cl)c2cccnc12` [compound 10, 5-chloro-7-iodo-8-quinolinyl diethylcarbamate] yielded an IC50 in assay [14] of more than 100000 nM.

For the molecule `CN(C(=O)Oc1c(Cl)cc(Cl)c2cccnc12)c1ccccc1` [compound 3, 5,7-dichloro-8-quinolinyl methyl(phenyl)carbamate], the concentration for half-maximal inhibition (IC50) in assay [14] was more than 100000 nM.

The molecule `CN(C)CCC(c1ccc(Cl)cc1)c1ccccn1` (centres unmarked) [compound 6, Chloropheniramine maleate] showed an IC50 in assay [1] of more than 100000 nM.

Turning to `O=C(Oc1c(Cl)cc(Cl)c2cccnc12)N1CCOCC1` [compound 14, 5,7-dichloro-8-quinolinyl 4-morpholinecarboxylate], the half-maximal inhibitory concentration (IC50) in assay [14] is more than 100000 nM.
